In patent publication US6410533B1, “Antibacterial compounds” (Genzyme Corporation, priority 2000, dated 2002):
Converted amounts (≈) assume the structure as drawn. Like-named read-outs stand apart in the source and are kept apart here.

Tests used:
[1] = system: Staphylococcus aureus bacteria (ATCC 9604 SV); assay: Minimal inhibitory concentration (MIC), broth microdilution; assay type: cell-based; conditions: 24 h at 37° C.
How it was run: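 MIC: broth microdilution per NCCLS in Mueller-Hinton broth; overnight culture adjusted to 0.05 McFarland and diluted twenty-fold into compound-containing broth. IC50: inoculum at 0.1 McFarland diluted two-fold into TB broth with compound, 3–5 h at 37° C. Turbidity at 550 nm; IC50 is the concentration giving 50% growth inhibition.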

[2] = system: Staphylococcus aureus bacteria (ATCC 9604 SV); assay: IC50 determination, growth inhibition by turbidity at 550 nm; assay type: cell-based; conditions: Staphylococcus aureus ATCC 9604 SV, turbidity at 550 nm after 3-5 h at 37° C.
Method: Minimal inhibitory concentrations (MICs) for Staphylococcus aureus bacteria (ATCC 9604 SV) were determined by broth microdilution methodology following National Committee for Clinical Laboratory Standards. In the MIC determinations, the compounds were incorporated into Mueller-Hinton broth (Becton Dickinson Microbiology systems, Cockeyville, Md.) at a series of concentrations. After the test organism was grown overnight in TB broth, the broths were adjusted to the turbidity equivalent to 0.05 McFarland standard. The suspensions were diluted twenty-fold into the broth containing the compounds. […] In the IC50 determination, the method was modified to allow the rapid growth of the organisms. The inoculum suspensions were adjusted to 0.1 McFarland standard and then diluted two-fold into the wells containing TB broth and the compounds. After three to five hours incubation at 37° C., the turbidity was measured at 550 nm and inhibitory activity was defined as the concentration of antimicrobial agent that inhibits 50% growth of the organism in the microdilution wells.

[3] = system: methicillin-resistant Staphylococcus aureus (ATCC 33591); assay: In vivo mouse intraperitoneal infection, mortality and % survivors over 7 days; conditions: MRSA ATCC 33591 i.p., ICR mice; for In Vivo, single dose (% of mice rescued): single dose 1 h post inoculation; for In Vivo, double dose (% of mice rescued): 1 and 5 h post inoculation
How it was run: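 Male ICR mice (20 g, 10 per group) were infected i.p. with 2-3×10^7 CFU/mouse (LD90-100) of MRSA ATCC 33591 in broth with 5% mucin. Compound in 1% cremophore EL/saline was given s.c. at 1 h, or at 1 and 5 h, post-infection. Mortality and % survivors were recorded over 7 days.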

[4] = Staphylococcus aureus ATCC 9604 SV
[5] = ATCC9604, Staphylococcus aureus ATCC 9604 SV, read-out: MIC

| Compound | MIC [1, 4] [mg/L] | IC50 [2] [µM] | In Vivo, single dose (% of mice rescued) ([3]; 2 mg/kg s.c.) [% @ 2 mg/kg] | In Vivo, single dose (% of mice rescued) ([3]; 20 mg/kg s.c.) [% @ 20 mg/kg] | MIC [1, 5] [mg/L] | IC50 ([2]; ATCC9604) [µM] | In Vivo, double dose (% of mice rescued) ([3]; 2 × 2 mg/kg s.c.) [% @ 2 × 2 mg/kg] | In Vivo, double dose (% of mice rescued) ([3]; 2 × 20 mg/kg s.c.) [% @ 2 × 20 mg/kg] | In Vivo, single dose (% of mice rescued) ([3]; 40 mg/kg s.c.) [% @ 40 mg/kg] | In Vivo, single dose (% of mice rescued) ([3]; 80 mg/kg s.c.) [% @ 80 mg/kg] | In Vivo, single dose (% of mice rescued) ([3]; 160 mg/kg s.c.) [% @ 160 mg/kg] |
| --- | --- | --- | --- | --- | --- | --- | --- | --- | --- | --- | --- |
| O=C(Nc1cc(Cl)cc(Cl)c1)Nc1cc(-c2cccs2)nn1-c1ccc(C(F)(F)F)cc1 [Compound 84] | 6.22 (≈ 12.5 µM) | 0.134 | 0 | 0 |  |  |  |  |  |  |  |
| O=C(Nc1cc(C(F)(F)F)cc(C(F)(F)F)c1)Nc1cc(-c2cccnc2)nn1-c1ccc(C(F)(F)F)cc1 [Compound 86] | 1.68 (≈ 3 µM) | 0.205 | 0 | 0 |  |  |  |  |  |  |  |
| O=C(Nc1cc(C(F)(F)F)cc(C(F)(F)F)c1)Nc1cc(-c2cccs2)nn1-c1ccc(C(F)(F)F)cc1 [Compound 83] | 0.847 (≈ 1.5 µM) | 0.071 | 0 | 25 |  |  |  |  |  |  |  |
| O=C(Nc1cc(C(F)(F)F)cc(C(F)(F)F)c1)Nc1cc(CN2CCOCC2)nn1-c1ccc(C(F)(F)F)cc1 [Compound 89] | >29.1 | 0.216 | 0 | 0 |  |  |  |  |  |  |  |
| Cc1cc(NC(=O)Nc2cc(C(F)(F)F)cc(C(F)(F)F)c2)n(-c2ccc(Br)cc2)n1 [Compound 95, 1-(3,5-Bis-trifluoromethyl-phenyl)-3-[2-(4-bromo-phenyl)-5-methyl-2H-pyrazol-3-yl]-urea] |  |  | 25 | 25 | < 0.761 | 0.268 |  |  |  |  |  |
| CCOC(=O)c1cc(NC(=O)Nc2cc(C(F)(F)F)cc(C(F)(F)F)c2)n(-c2ccc(Br)cc2)n1 [Compound 98] | >14.1 | 3.1 |  |  |  |  | 0 | 33 |  |  |  |
| O=C(Nc1cc(Cl)cc(Cl)c1)Nc1cc(-c2cccs2)nn1-c1ccc(Br)cc1 [Compound 108] | >25.4 | 0.194 | 0 | 0 |  |  |  |  |  |  |  |
| CC(C)(C)c1cc(NC(=O)Nc2cc(Cl)cc(Cl)c2)n(-c2ccc(Br)cc2)n1 [Compound 100] | <0.723 | 0.132 | 0 | 0 |  |  |  |  |  |  |  |
| O=C(Nc1cc(C(F)(F)F)cc(C(F)(F)F)c1)Nc1cc(CO)nn1-c1ccc(Br)cc1 [Compound 99, 1-(3,5-Bis-trifluoromethyl-phenyl)-3-[2-(4-bromo-phenyl)-5-hydroxymethyl-2H-pyrazol-3-yl]-urea] |  |  |  |  | 6.54 (≈ 12.5 µM) | 4.24 | 33 | 33 |  |  |  |
| CC(C)(C)c1cc(NC(=O)Nc2cc(C(F)(F)F)cc(C(F)(F)F)c2)n(-c2ccc(Br)cc2)n1 [Compound 101] | <0.824 | 0.143 | 0 | 0 |  |  |  |  |  |  |  |
| COc1ccc(C=C2C(=O)N(c3cc(Cl)cc(Cl)c3)N=C2c2ccccc2)cc1 [Compound 3, 2-(3,5-Dichloro-phenyl)-4-(4-methoxy-benzylidene)-5-phenyl-2,4-dihydro-pyrazol-3-one] |  |  |  |  | 1.3 (≈ 3.07 µM) | 0.985 | 25 | 25 |  |  |  |
| O=C(Nc1cc(Cl)cc(Cl)c1)Nc1ccnn1-c1ccc(Br)cc1 [Compound 93] | <0.639 | 0.138 | 0 | 25 |  |  |  |  |  |  |  |
| O=C(Nc1cc(C(F)(F)F)cc(C(F)(F)F)c1)Nc1cc(-c2ccsc2)nn1-c1ccc(Br)cc1 [Compound 111] | <0.863 | 0.126 | 0 | 0 |  |  |  |  |  |  |  |
| O=C1CC(c2ccccc2)=NN1c1ccc(Cl)c(Cl)c1 [Compound 2] | 1.91 (≈ 6.26 µM) | 0.449 |  |  |  |  | 0 | 0 |  |  |  |
| O=C(Nc1cc(Cl)cc(Cl)c1)Nc1cc(-c2ccsc2)nn1-c1ccc(Br)cc1 [Compound 110] | 25.4 (≈ 50 µM) | 0.164 | 0 | 0 |  |  |  |  |  |  |  |
| O=C(Nc1cc(Cl)cc(Cl)c1)Nc1cc(-c2cccnc2)nn1-c1ccc(Br)cc1 [Compound 116] | 3.02 (≈ 6 µM) | 0.391 | 0 | 0 |  |  |  |  |  |  |  |
| O=C(Nc1cc(C(F)(F)F)cc(C(F)(F)F)c1)Nc1cc(-c2ccccc2)nn1-c1ccc(C(F)(F)F)cc1 [Compound 76, 1-(3,5-Bis-trifluoromethyl-phenyl)-3-[5-phenyl-2-(4-trifluoromethyl-phenyl)-2H-pyrazol-3-yl]-urea] |  |  | 0 | 0 | < 0.838 | 0.054 |  |  |  |  |  |
| O=C(Nc1cc(Cl)cc(Cl)c1)Nc1cc(-c2ccco2)nn1-c1ccc(Br)cc1 [Compound 112] | 6.15 (≈ 12.5 µM) | 0.232 | 0 | 0 |  |  |  |  |  |  |  |
| O=C(Nc1cc(C(F)(F)F)cc(C(F)(F)F)c1)Nc1cc(-c2ccncc2)nn1-c1ccc(C(F)(F)F)cc1 [Compound 87] | 1.68 (≈ 3 µM) | 0.214 | 25 | 25 |  |  | 0 | 17 |  |  |  |
| O=C(Nc1cc(C(F)(F)F)cc(C(F)(F)F)c1)Nc1cc(-c2cccnc2)nn1-c1ccc(Br)cc1 [Compound 117, 1-(3,5-Bis-trifluoromethyl-phenyl)-3-[2-(4-bromo-phenyl)-5-pyridin-3-yl-2H-pyrazol-3-yl]-urea] |  |  | 25 | 0 | 3.42 (≈ 6 µM) | 0.238 |  |  |  |  |  |
| COCCN(CCOC)Cc1cc(NC(=O)Nc2cc(C(F)(F)F)cc(C(F)(F)F)c2)n(-c2ccc(Br)cc2)n1 [Compound 103] | 16.0 (≈ 25.1 µM) | 1.56 | 25 | 25 |  |  | 0 | 33 |  |  |  |
| O=C(Nc1cc(C(F)(F)F)cc(C(F)(F)F)c1)Nc1ccnn1-c1ccc(Br)cc1 [Compound 92, 1-(3,5-Bis-trifluoromethyl-phenyl)-3-[2-(4-bromo-phenyl)-2H-pyrazol-3-yl]-urea] |  |  | 0 | 0 | < 0.74 | 0.209 |  |  |  |  |  |
| O=C(Nc1cc(C(F)(F)F)cc(C(F)(F)F)c1)Nc1cc(CN(CCO)CCO)nn1-c1ccc(Br)cc1 [Compound 104] | 15.3 (≈ 25.1 µM) | 6.8 |  |  |  |  | 17 | 17 |  |  |  |
| O=C(Nc1cc(Cl)cc(Cl)c1)Nc1cc(-c2ccccc2)nn1-c1ccc(Br)cc1 [Compound 107] | 6.28 (≈ 12.5 µM) | 0.121 | 25 | 12.5 |  |  | 0 | 17 | 10 | 10 | 5 |
| O=C1CC(c2ccccc2)=NN1c1cc(Cl)cc(Cl)c1 [Compound 1, 2-(3,5-Dichloro-phenyl)-5-phenyl-2,4-dihydro-pyrazol-3-one] |  |  |  |  | 0.122 (≈ 0.4 µM) | 0.54 | 0 | 25 |  |  |  |
